Measurements from publication PMC12305662, “Fragment-Based Development of Small Molecule Inhibitors Targeting Mycobacterium tuberculosis Cholesterol Metabolism” (Journal of Medicinal Chemistry, 2025).

Key:
CYP125 [1] = molecular target: T1, CYP125 (Mycobacterium tuberculosis, UniProt P9WPP1); test: biochemical; assay type: binding; conditions: read-out: KD (μM) CYP125
CYP125 [2] = molecular target: T1, CYP125; assay type: binding; conditions: for Δλmax (nm) CYP125, fragment screen: fragment 1 mM, P450 4-6 µM, Soret shift relative to DMSO (393 nm)
CYP142 = CYP142 (Mycobacterium tuberculosis, UniProt P9WPL5); conditions: fragment 1 mM, P450 4-6 µM; relative to DMSO (418.5 nm)
CYP124 = CYP124 (Mycobacterium tuberculosis, UniProt P9WPP3); conditions: fragment 1 mM, P450 4-6 µM; relative to DMSO (419 nm)
CYP121 = CYP121 (Mycobacterium tuberculosis, UniProt P9WPP7); conditions: fragment 1 mM, P450 4-6 µM; relative to DMSO (417 nm)
CYP126 = CYP126 (Mycobacterium tuberculosis, UniProt P9WPN9); conditions: fragment 1 mM, P450 4-6 µM; relative to DMSO (418 nm)
CYP143 = CYP143 (Mycobacterium tuberculosis, UniProt P9WPL3); conditions: fragment 1 mM, P450 4-6 µM; relative to DMSO (416 nm)
CYP144 = CYP144 (Mycobacterium tuberculosis, UniProt P9WPL1); conditions: fragment 1 mM, P450 4-6 µM; relative to DMSO (421 nm)
CYP144, sequence (P9WPL1 whole entry, the tested form may be a part): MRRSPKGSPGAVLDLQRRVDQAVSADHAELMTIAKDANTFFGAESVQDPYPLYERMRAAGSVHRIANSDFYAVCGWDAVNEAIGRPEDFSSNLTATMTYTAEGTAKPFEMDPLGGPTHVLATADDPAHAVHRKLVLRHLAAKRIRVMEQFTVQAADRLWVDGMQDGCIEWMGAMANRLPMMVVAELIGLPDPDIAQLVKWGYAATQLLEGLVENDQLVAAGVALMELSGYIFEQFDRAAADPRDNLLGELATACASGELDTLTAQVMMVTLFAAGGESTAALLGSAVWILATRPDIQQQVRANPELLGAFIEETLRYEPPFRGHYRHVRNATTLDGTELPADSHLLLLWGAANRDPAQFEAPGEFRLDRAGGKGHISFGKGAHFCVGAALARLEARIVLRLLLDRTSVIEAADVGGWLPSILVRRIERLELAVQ

T1 sequence (P9WPP1 whole entry, the tested form may be a part): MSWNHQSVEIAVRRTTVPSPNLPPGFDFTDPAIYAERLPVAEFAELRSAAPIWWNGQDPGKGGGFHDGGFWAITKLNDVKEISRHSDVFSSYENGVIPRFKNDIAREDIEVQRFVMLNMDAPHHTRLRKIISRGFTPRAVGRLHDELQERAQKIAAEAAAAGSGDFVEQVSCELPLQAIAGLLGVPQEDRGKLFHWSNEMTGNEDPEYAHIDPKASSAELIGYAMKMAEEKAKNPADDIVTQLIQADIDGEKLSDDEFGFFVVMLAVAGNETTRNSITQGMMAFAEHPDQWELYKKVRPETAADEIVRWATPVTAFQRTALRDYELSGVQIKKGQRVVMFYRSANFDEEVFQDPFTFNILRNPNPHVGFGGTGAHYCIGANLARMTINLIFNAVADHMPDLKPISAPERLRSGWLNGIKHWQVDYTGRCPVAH
CYP124, sequence (P9WPP3 whole entry, the tested form may be a part): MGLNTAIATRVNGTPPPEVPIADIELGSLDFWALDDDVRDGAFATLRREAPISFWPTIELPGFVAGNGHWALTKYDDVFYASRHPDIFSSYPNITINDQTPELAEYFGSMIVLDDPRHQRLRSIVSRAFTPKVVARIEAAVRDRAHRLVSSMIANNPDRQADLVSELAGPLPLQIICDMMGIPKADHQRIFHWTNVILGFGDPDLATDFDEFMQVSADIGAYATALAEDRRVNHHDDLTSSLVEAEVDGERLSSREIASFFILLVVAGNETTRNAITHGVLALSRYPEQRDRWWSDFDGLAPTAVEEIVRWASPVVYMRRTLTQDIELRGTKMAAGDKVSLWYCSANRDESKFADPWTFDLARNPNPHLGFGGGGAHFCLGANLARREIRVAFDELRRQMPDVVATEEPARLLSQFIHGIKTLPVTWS
CYP126, sequence (P9WPN9 whole entry, the tested form may be a part): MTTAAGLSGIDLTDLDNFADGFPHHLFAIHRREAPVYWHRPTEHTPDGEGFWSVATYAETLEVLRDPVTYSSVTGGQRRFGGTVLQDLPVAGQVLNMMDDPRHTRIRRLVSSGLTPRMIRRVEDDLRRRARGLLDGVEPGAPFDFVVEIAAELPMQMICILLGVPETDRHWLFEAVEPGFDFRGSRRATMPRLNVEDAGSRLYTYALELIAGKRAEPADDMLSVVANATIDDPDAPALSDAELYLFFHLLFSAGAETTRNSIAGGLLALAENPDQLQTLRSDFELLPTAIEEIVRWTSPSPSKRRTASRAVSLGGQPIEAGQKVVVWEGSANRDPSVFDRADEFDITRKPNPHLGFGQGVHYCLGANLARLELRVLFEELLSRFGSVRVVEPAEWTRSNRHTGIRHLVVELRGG
CYP121, sequence (P9WPP7 whole entry, the tested form may be a part): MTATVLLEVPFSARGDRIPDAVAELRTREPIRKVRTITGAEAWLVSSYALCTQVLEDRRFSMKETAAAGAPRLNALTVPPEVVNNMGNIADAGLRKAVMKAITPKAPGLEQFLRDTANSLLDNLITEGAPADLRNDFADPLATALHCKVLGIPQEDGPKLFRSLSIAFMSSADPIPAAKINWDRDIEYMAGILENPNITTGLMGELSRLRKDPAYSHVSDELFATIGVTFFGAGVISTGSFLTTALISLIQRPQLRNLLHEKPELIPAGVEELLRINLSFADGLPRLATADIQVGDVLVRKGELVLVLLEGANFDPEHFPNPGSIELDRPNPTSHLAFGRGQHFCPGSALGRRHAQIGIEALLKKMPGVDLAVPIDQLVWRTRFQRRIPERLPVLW
CYP143, sequence (P9WPL3 whole entry, the tested form may be a part): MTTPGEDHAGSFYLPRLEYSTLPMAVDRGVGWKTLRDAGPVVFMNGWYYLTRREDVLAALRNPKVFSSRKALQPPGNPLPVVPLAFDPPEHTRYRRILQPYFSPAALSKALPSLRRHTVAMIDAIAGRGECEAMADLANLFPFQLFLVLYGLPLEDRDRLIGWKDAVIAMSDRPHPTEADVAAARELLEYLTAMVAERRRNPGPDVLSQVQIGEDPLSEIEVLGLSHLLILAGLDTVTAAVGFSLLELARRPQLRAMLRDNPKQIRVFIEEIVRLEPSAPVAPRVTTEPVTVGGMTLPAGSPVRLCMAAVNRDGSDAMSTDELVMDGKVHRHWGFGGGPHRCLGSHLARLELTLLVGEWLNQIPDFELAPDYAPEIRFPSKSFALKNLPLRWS
CYP142, sequence (P9WPL5 whole entry, the tested form may be a part): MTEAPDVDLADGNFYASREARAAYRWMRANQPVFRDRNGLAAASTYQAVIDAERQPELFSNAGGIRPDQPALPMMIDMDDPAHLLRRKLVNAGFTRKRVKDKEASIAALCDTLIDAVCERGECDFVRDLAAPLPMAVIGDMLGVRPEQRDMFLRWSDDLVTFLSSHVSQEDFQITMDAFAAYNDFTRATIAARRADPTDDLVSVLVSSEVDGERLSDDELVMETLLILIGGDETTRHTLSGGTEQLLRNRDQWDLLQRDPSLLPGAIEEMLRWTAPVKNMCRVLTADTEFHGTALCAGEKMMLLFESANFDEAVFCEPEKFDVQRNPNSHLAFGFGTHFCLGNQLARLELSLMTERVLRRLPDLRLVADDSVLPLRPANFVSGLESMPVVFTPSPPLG

SMILES	Kd (CYP125 [1])	CYP125 Δλmax (nm) HS (CYP125 [2]; compound 100 µM, P450 5 µM, high spin population, '-' = no HS maxima present)	CYP125 Δλmax (nm) LS (CYP125 [2]; compound 100 µM, P450 5 µM, low spin population, '-' = no LS maxima present)	Δλmax (nm) CYP125, fragment screen (CYP125 [2])	Δλmax (nm) CYP142, fragment screen (CYP142)	Δλmax (nm) CYP124, fragment screen (CYP124)	Δλmax (nm) CYP121, fragment screen (CYP121)	Δλmax (nm) CYP126, fragment screen (CYP126)	Δλmax (nm) CYP143, fragment screen (CYP143)	Δλmax (nm) CYP144, fragment screen (CYP144)
c1ccc(Cc2ccncc2)cc1 [1a]	180 ± 6.7 µM	2 nm	27 nm	–	–	–	–	–	–	–
Clc1ccc(Cl)nn1 [compound 27]	–	–	–	0 nm	0 nm	0 nm	0 nm	0 nm	0.5 nm	0 nm
CNCc1cccc(-c2ccccc2)c1 [compound 21]	–	–	–	25 nm	3 nm	-1 nm	0 nm	1 nm	4 nm	0 nm
O=C(O)c1ccnn1-c1ccccc1 [compound 51]	–	–	–	0 nm	0 nm	0 nm	-1 nm	0 nm	0.5 nm	0 nm
Cn1nc(C(=O)O)cc1-c1ccccc1 [compound 70]	–	–	–	0 nm	0 nm	2 nm	0 nm	0 nm	0.5 nm	0 nm
Clc1cncc(Cl)c1 [compound 19]	–	–	–	0 nm	0 nm	0 nm	0 nm	0 nm	0 nm	0 nm
O=C(O)CCc1nc2ccccc2[nH]1 [compound 34]	–	–	–	0 nm	0 nm	0 nm	0 nm	0 nm	0.5 nm	0 nm
CNCc1ccc(-c2ccncc2)cc1 [compound 52]	–	–	–	28.5 nm	1.5 nm	2 nm	-1 nm	0 nm	4 nm	0 nm
O=C(O)[C@@H]1Cc2ccccc2CN1 [compound 79]	–	–	–	-2 nm	0 nm	0 nm	1 nm	0 nm	0 nm	0 nm
CCc1nc(C)c[nH]1 [compound 67]	–	–	–	0 nm	0 nm	0 nm	-1 nm	0 nm	0 nm	0 nm
Nc1cc(Cl)nc(Cl)c1 [compound 28]	–	–	–	0 nm	0 nm	0 nm	0 nm	0 nm	0 nm	0 nm
N#Cc1ccncc1 [compound 41]	–	–	–	0 nm	0 nm	0 nm	0 nm	0 nm	-0.5 nm	0 nm
O=C(O)c1cccc(-c2cccnc2)c1 [compound 74]	–	–	–	0 nm	0 nm	0 nm	0 nm	0 nm	1 nm	0 nm
Nc1ccc(Cl)nn1 [compound 73]	–	–	–	0 nm	0 nm	0 nm	0 nm	0 nm	0 nm	0 nm
O=C(O)c1ccnnc1 [compound 1]	–	–	–	0 nm	0 nm	0 nm	-1 nm	0 nm	0.5 nm	0 nm
COC(=O)c1cc2ccccc2cn1 [compound 26]	–	–	–	0 nm	0 nm	0 nm	0 nm	0 nm	1 nm	0 nm
COC(=O)c1ccnc(N)c1 [compound 25]	–	–	–	0 nm	0 nm	0 nm	0 nm	0 nm	0.5 nm	0 nm
c1ccc(-c2ncc[nH]2)cc1 [compound 4]	–	–	–	0 nm	0 nm	0 nm	0 nm	0 nm	0 nm	0 nm
COc1ncccc1N [compound 50]	–	–	–	0 nm	0 nm	0 nm	0 nm	0 nm	2.5 nm	0 nm
COc1ccc(C(C)=O)cn1 [compound 31]	–	–	–	0 nm	0 nm	0 nm	0 nm	0 nm	0.5 nm	0 nm
